One experiment concerns the target T1, HO-1 (rat spleen) (Rattus norvegicus, UniProt P06762).
T1 construct: Spleen microsomes were used as a source of HO-1; from tissue; host or cells: spleen microsomal fraction of adult male Sprague-Dawley rats
T1 sequence (P06762 1-289): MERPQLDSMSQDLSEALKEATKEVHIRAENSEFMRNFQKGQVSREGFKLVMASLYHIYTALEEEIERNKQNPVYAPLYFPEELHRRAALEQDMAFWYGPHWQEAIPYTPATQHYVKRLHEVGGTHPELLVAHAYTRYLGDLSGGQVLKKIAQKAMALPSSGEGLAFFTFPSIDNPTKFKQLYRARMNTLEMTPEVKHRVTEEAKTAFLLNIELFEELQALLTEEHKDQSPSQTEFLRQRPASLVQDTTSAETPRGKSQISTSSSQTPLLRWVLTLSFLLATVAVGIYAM
Nature of the experiment: HO enzymatic activity, rat spleen microsomal fraction (CO formation from methemalbumin). Format: biochemical. Here is the method: (§1) Incubations for HO activity analysis were done under conditions for which the rate of CO formation (pmol CO×min^−1×mg protein^−1) was linear with respect to time and microsomal protein concentration. Briefly, reaction mixtures (150 μL) consisting of 100 mM phosphate buffer (pH 7.4), 50 μM methemalbumin, and 1 mg/mL protein were pre-incubated with the inhibitors at final concentrations ranging from 0.1-100 μM for 10 minutes at 37° C. Reactions were initiated by adding NADPH at a final concentration of 1 mM and incubations were performed for an additional 15 minutes at 37° C.
(§2) Incubations for HO activity analysis were done under conditions for which the rate of CO formation (pmol CO/mg protein/minute) was linear with respect to time and microsomal protein concentration. Briefly, reaction mixtures (150 μL) consisting of 100 mM phosphate buffer (pH 7.4), 50 μM methemalbumin and 1 mg/mL protein were pre-incubated with the vehicle (ethanol or water in which the inhibitors were dissolved), or inhibitors at final concentrations ranging from 0.1-1000 μM for 10 minutes at 37° C. Reactions were initiated by adding β-NADPH at a final concentration of 1 mM and incubations were carried out for an additional 15 minutes at 37° C. Reactions were stopped by instantly freezing the reaction mixture on pulverized dry ice and CO formation was measured by gas chromatography using a TA 3000R Process Gas Analyzer (Trace Analytical/Ametek, Newark, Del., USA).
(§3) The values on the abscissa represent the decimal logarithm of the inhibitor's concentration (in μM), whereas the values of the activity on the ordinate are expressed as a percentage of the control experiments without inhibitor.
(§4) The IC50 values for the replicate experiments were employed to generate the reported standard deviation value.

The next experiment has as its target T2, HO-2 (rat brain) (Rattus norvegicus, UniProt P23711).
T2 construct: brain microsomes were used as a source of HO-2; from tissue; host or cells: brain microsomal fraction of adult male Sprague-Dawley rats
T2 sequence (P23711 1-315): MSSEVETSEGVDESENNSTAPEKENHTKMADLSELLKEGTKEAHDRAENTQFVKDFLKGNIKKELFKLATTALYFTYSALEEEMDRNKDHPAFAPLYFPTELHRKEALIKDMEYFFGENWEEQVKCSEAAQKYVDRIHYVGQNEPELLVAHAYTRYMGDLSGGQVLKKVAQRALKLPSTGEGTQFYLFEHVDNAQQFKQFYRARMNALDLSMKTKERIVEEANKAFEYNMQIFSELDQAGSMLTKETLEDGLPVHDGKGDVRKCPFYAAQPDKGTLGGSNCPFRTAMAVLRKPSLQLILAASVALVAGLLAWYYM
Nature of the experiment: HO enzymatic activity, rat brain microsomal fraction (CO formation from methemalbumin). The class given is biochemical. Here is the method:
as §1, §2, §3, §4

[1] abbreviates: average ± SD of replicate experiments, read-out: IC50 HO-1 (rat spleen/μM).
Setting [2] is: average ± SD of replicate experiments, read-out: IC50 HO-2 (rat brain)/μM).
[3] abbreviates: CO formation from methemalbumin, mean ± SD of replicate experiments, read-out: IC50 HO-1 (rat spleen/μM).
Where [4] appears, read: CO formation from methemalbumin, mean ± SD of replicate experiments, read-out: IC50 HO-2 (rat brain)/μM).
Setting [5] is: IC50 HO-1 (rat spleen/μM), CO formation from methemalbumin, mean ± SD of replicate experiments.
[6] abbreviates: IC50 HO-2 (rat brain)/μM), CO formation from methemalbumin, mean ± SD of replicate experiments.
The mark [7] stands for this setting: IC50 HO-2 (rat brain)/μM), average ± SD of replicate experiments.
The mark [8] stands for this setting: IC50 HO-1 (rat spleen/μM), average ± SD of replicate experiments.

Where a name gives a salt, the structure may show the parent alone. Read-outs that look alike come from different tables or passages of the source.

Regarding `CS(=O)(=O)c1ncnn1CC(=O)CCc1ccccc1` [QC-156, 1-(5-Methanesulfonyl-[1,2,4]triazol-1-yl)-4-phenyl-butan-2-one], the IC50 on HO-1 (rat spleen) (setting [1]) and at HO-2 (rat brain) (setting [2]) was over 100 µM in each case.
As for `O=C(CCc1ccccc1)C[n+]1ccncc1` [QC-97, 1-(4-phenyl-2-oxo-butyl)-pyrazin-1-ium bromide], the values for the IC50 at HO-1 (rat spleen) (setting [3]) and on HO-2 (rat brain) (setting [4]) were 163 ± 10 µM and over 100 µM, respectively.
Consider `O=C(CCn1ccnc1)c1ccc(Cl)cc1` [QC-85, 1-(4-chlorophenyl)-3-imidazol-1-yl-propan-1-one hydrochloride], for which the IC50 against HO-1 (rat spleen) (setting [5]) is 32 ± 3 µM; on HO-2 (rat brain) (setting [6]) it was over 100 µM.
As to `c1ccc(CCC2(Cn3cncn3)OCCO2)cc1` [QC-104, 2-(2-phenethyl)-2-{(1H-[1,2,4]triazol-1-yl)methyl}-1,3-dioxolane hydrochloride], at HO-1 (rat spleen) (setting [3]), the IC50 came out at 14 ± 3 µM.
`O=C(c1ccc(-n2ccnc2)cc1)C1CC1` [QC-98, Cyclopropyl-(4-imidazol-1-yl-phenyl)methanone hydrochloride]: the IC50 at HO-1 (rat spleen) (setting [3]) and at HO-2 (rat brain) (setting [4]) was over 100 µM throughout.
On HO-2 (rat brain) (setting [7]), `O=C(/C=C/c1ccccc1)CCn1ccnc1` [QC-223, 5-(1H-Imidazol-1-yl)-1-phenyl-pent-1-en-3-one hydrochloride] displayed an IC50 of 31 ± 12 µM.
With `COc1ccc(C(=O)Cn2ccnc2)cc1` [QC-163, 2-Imidazol-1-yl-1-(4-methoxyphenyl)-ethanone hydrochloride], the IC50 at HO-1 (rat spleen) (setting [1]) was determined as 32 ± 4 µM; against HO-2 (rat brain) (setting [7]) it was 62 ± 3 µM.
`O=C(CCc1ccc(O)cc1)Cn1ccnc1` [QC-206, 4-(4-Hydroxyphenyl)-1-(1H-imidazol-1-yl)butan-2-one hydrochloride]: the figures for the IC50 on HO-1 (rat spleen) (setting [1]) and at HO-2 (rat brain) (setting [2]) were 382 µM and 251 µM, respectively.
Regarding `Clc1ccc(CCC2(Cn3ccnc3)OCCCO2)cc1` [QC-70, 2-[2-(4-chlorophenyl)ethyl]-2-[(1H-imidazol-1-yl)methyl]-1,3-dioxane hydrochloride], the figures for the IC50 at HO-1 (rat spleen) (setting [5]) and on HO-2 (rat brain) (setting [6]) were 20 ± 4 µM and over 100 µM, respectively.
For the molecule `O=C(Cn1ccnc1)c1ccc2ccccc2c1` [QC-162, 2-Imidazol-1-yl-1-napthalen-2-yl-ethanone hydrochloride], the IC50 at HO-1 (rat spleen) (setting [1]) worked out at 1.9 ± 0.1 µM; at HO-2 (rat brain) (setting [2]), 12 ± 0.05 µM.
In the case of `c1ccc2[nH]c(NC3CCC(c4cnc[nH]4)CC3)nc2c1` (centres unmarked) [QC-149, (1H-Benzoimidazol-2-yl)-[4-(3H-imidazol-4-yl)-cyclohexyl]-amine dihydrochloride], the IC50 at HO-1 (rat spleen) (setting [1]) and on HO-2 (rat brain) (setting [2]) was over 200 µM throughout.
With `O=C(Cn1cncn1)c1ccccc1` [QC-157, 1-Phenyl-2-[1,2,4]triazol-1-yl-ethanone hydrochloride], the values for the IC50 on HO-1 (rat spleen) (setting [8]) and against HO-2 (rat brain) (setting [7]) were 12 ± 0.9 µM and over 100 µM, respectively.
For the molecule `CCOC(=O)c1nccn1CC(=O)CCc1ccccc1` [QC-110, 1-(2-Oxo-4-phenyl-butyl)-1H-imidazole-2-carboxylic acid ethyl ester hydrochloride], the IC50 at HO-1 (rat spleen) (setting [5]) and against HO-2 (rat brain) (setting [6]) was over 100 µM throughout.
As to `CCC(COC(C)=O)n1ccnc1` (centres unmarked) [QC-36, 1-acetoxy-2-(1H-imidazol-1-yl)-butane], the IC50 on HO-1 (rat spleen) (setting [3]) and at HO-2 (rat brain) (setting [4]) was over 100 µM throughout.
Regarding `CSc1nccn1CC(=O)CCc1ccccc1` [QC-113, 1-(2-Methylsulfanyl-imidazol-1-yl)-4-phenyl-butan-2-one], the IC50 on HO-1 (rat spleen) (setting [3]) and at HO-2 (rat brain) (setting [4]) was over 100 µM each time.
At HO-2 (rat brain) (setting [7]), `O=C(Cn1ccnc1)c1ccc(Cl)c(Cl)c1` [QC-189, 1-(3,4-Dichlorophenyl)-2-imidazol-1-yl-ethanone] displayed an IC50 of 4.7 ± 0.7 µM.
For `OC(Cn1cncn1)(Cn1cncn1)c1ccc(F)cc1F` [QC-90, Fluconazole, reference compound], the IC50 at HO-2 (rat brain) (setting [4]) was over 100 µM.
For `c1c[nH]cn1` [QC-43, Imidazole, reference compound], the IC50 at HO-1 (rat spleen) (setting [5]) and against HO-2 (rat brain) (setting [6]) was over 100 µM each time.
With `O=C(CCc1ccccc1)Cn1nccn1` [QC-101, 4-phenyl-1-[1,2,3]triazol-2-yl-butan-2-one], on HO-1 (rat spleen) (setting [3]), the IC50 was over 100 µM.
On to `O=C(NCCCn1ccnc1)Nc1ccccc1` [QC-107, 1-(3-Imidazol-1-yl-propyl)-3-phenyl-urea], for which the IC50 at HO-1 (rat spleen) (setting [3]) and on HO-2 (rat brain) (setting [4]) was over 100 µM throughout.
As for `c1ccc(C2(Cn3ccnc3)OCCO2)cc1` [QC-246, 1-(2-Phenyl-[1,3]dioxolan-2-ylmethyl)-1H-imidazole hydrochloride], the IC50 was 32 ± 3 µM on HO-1 (rat spleen) (setting [8]) and over 100 µM against HO-2 (rat brain) (setting [7]).
On HO-1 (rat spleen) (setting [8]), `CC(C)(C(=O)c1ccccc1)n1ccnc1` [QC-187, 2-Imidazol-1-yl-2-methyl-1-phenyl-propan-1-one] registered an IC50 of over 100 µM.
On HO-1 (rat spleen) (setting [5]), `Nc1ccccc1SC[C@H]1CO[C@@](CCc2ccc(Cl)cc2)(Cn2ccnc2)O1` [QC-22, (2R,4R)-2-[2-(4-chlorophenyl)ethyl]-2-[(1H-imidazol-1-yl)methyl]-4-[{(2-aminophenyl)thio}methyl]-1,3-dioxolane dihydrochloride] displayed an IC50 of 87 ± 24 µM.
At HO-2 (rat brain) (setting [6]), `O=C(CCc1ccc(Br)cc1)Cn1ccnc1` [QC-53, 4-(4-Bromophenyl)-1-(1H-imidazol-1-yl)-2-butanone hydrochloride] came in with an IC50 of 10 ± 5 µM.
As to `Nc1cccc(SC[C@H]2CO[C@](CCc3ccc(Cl)cc3)(Cn3ccnc3)O2)c1` [QC-20, (2S,4R)-2-[2-(4-chlorophenyl)ethyl]-2-[(1H-imidazol-1-yl)methyl]-4-[{(3-aminophenyl)thio}methyl]-1,3-dioxolane hydrochloride], on HO-1 (rat spleen) (setting [5]), the IC50 was found to be 5.2 ± 0.4 µM.
In the case of `O=C(CCc1ccc(F)cc1)Cn1ccnc1` [QC-54, 4-(4-Fluorophenyl)-1-(1H-imidazol-1-yl)-2-butanone hydrochloride], the IC50 at HO-2 (rat brain) (setting [6]) was found to be 2 ± 0.2 µM.
Regarding `O=C(CCc1ccccc1)Cn1cncn1` [QC-86, 4-phenyl-1-[1,2,4]triazol-1-yl-butan-2-one hydrochloride], the IC50 at HO-2 (rat brain) (setting [4]) worked out at 34 ± 3 µM.
Regarding `O=C(CCc1ccc(Cl)cc1)Cn1ccnc1` [QC-9, 4-(4-chlorophenyl)-1-(1H-imidazol-1-yl)-2-butanone hydrochloride], at HO-2 (rat brain) (setting [4]), the IC50 was 43 ± 5 µM.
In turn, `Fc1ccc(CCC2(Cn3ccnc3)OCCO2)cc1` [QC-55, 1-((2-(2-(4-Fluorophenyl)ethyl)-1,3-dioxolan-2-yl)methyl)-1H-imidazole hydrochloride] gave an IC50 at HO-1 (rat spleen) (setting [5]) of 4 ± 1 µM.
`O=C(CCc1ccccc1)Cn1cccn1` [QC-87, 4-phenyl-1-pyrazol-1-yl-butan-2-one hydrochloride] returned an IC50 at HO-1 (rat spleen) (setting [5]) of over 100 µM.
Take `Nc1ccccc1SC[C@@H]1CO[C@](CCc2ccc(Cl)cc2)(Cn2ccnc2)O1` [QC-3, (2S,4S)-2-[2-(4-chlorophenyl)ethyl]-2-[(1H-imidazol-1-yl)methyl]-4-[{(2-aminophenyl)thio}methyl]-1,3-dioxolane dihydrochloride]: the IC50 at HO-2 (rat brain) (setting [6]) was found to be 55 ± 26 µM.
Take `Cl.Clc1ccc(CC[C@@]2(Cn3ccnc3)OC[C@@H](COc3ccc(-c4ccccc4)cc3)O2)cc1` [QC-129, (2R,4S)-1-{4-Biphenyl-4-yloxymethyl)-2-[2-(4-chlorophenyl)ethyl]-[1,3]dioxolan-2-ylmethyl}-1H-imidazole hydrochloride]: the IC50 at HO-2 (rat brain) (setting [4]) was 43 ± 3 µM.
For the molecule `O=C(CCc1ccc(Br)cc1)Cn1cncn1` [QC-64, 4-(4-bromophenyl)-1-[1,2,4]triazol-1-yl-butan-2-one hydrochloride], at HO-2 (rat brain) (setting [6]), the IC50 is 3 ± 2 µM.
As for `O=C(CCc1ccccc1)Cn1ccnn1` [QC-91, 4-phenyl-1-(1H-[1,2,3]triazol-1-yl)butan-2-one], on HO-1 (rat spleen) (setting [3]), the IC50 is 89 ± 1 µM.

For the origin of these results see US20120020915A1, “Compounds and Methods for Treating Cancer and Diseases of the Central Nervous System” (QUEENS UNIVERSITY AT KINGSTON, priority 2007, published 2012).
